Source: publication PMC8481536, “Wells–Dawson phosphotungstates as mushroom tyrosinase inhibitors: a speciation study” (Scientific Reports, 2021)
Several values for one entry are separate records, joined by “and”; a condition that tells them apart may be missing. Identical values can stand only once.

Key:
[1] = Speciation / hydrolytic stability of POT solutions in 50 mM Na-citrate buffer pH 6.8 by 31P-NMR and 183W-NMR; format: physicochemical; conditions: for 31P-NMR spectrum 96 h after preparation compared with 48 h: for [P2W12]: signal at −8.3 ppm of hexalacunary anion; for Share of unidentified / unstable solution intermediates: 31P-NMR integrated POT signals, aged solutions; for Share of monolacunary [α2-P2W17O61]10− in solution, 48 h after preparation / Share of monolacunary [α2-P2W17O61]10− in solution, fresh (1 h after preparation) / Share of unchanged educt anion in solution, after 48 h / Share of unchanged educt anion in solution, fresh (1 h): 31P-NMR peak integration; for Share of free phosphate in solution: fresh and 48 h aged ([P2W15]), after rearrangement ([P2W12])
Method: The detailed structural information about species under the respective experimental conditions is essential for understanding of POT activity. […] The concentration of all species was calculated based on ^31P-NMR peaks integration. Since the stock solutions of each Wells–Dawson POT was used up to three days after preparation and ^183W-NMR acquisition takes 60 h, ^31P-NMR spectra for all four solutions have been recorded 1 h and 48 h after preparation to check if speciation changes occur over time. […] In the solution of intact POT one hour after preparation 12% of [α2-P^V2W^VI17O61]^10− was detected based on ^31P-NMR peaks integration (Fig. 3A), whereas 48 h after dissolution the concentration of monolacunary anion increased to 69%. […] The ^183 W-NMR spectra of monolacunary [P2W17]^10− (Fig. S8A) and trilacunary [P2W15]^12− (Fig. S8C) are in agreement with ^31P-NMR data confirming the presence of only the monolacunary anion by 9 signals. The ^31P-NMR spectrum of fresh hexalacunary POT [P2W12]^12− (Fig. 3D) points to the presence of unhydrolyzed hexalacunary [H2P^V2W^VI12O48]^12− (72%) together with a low amount of monolacunary [α2-P^V2W^VI17O61]^10− (20%). After 48 h, the signals corresponding to hexalacunary [H2P^V2W^VI12O48]^12− and monolacunary [α2-P^V2W^VI17O61]^10− decreased to 9% and 3%, respectively, while two intense signals at − 7.5 and − 9.5 ppm appeared. […] The signal at − 7.5 ppm corresponds to [P^V8W^VI48O184]^40−, which was previously detected in solutions with a high amount of NH 4^+[37]. The presence of four different POTs in [P2W12]^12− 48 h after preparation renders the detection of all species’ signals in the ^183W-NMR spectrum impossible due to their low concentrations and the low abundancy (14%) of the ^183W isotope (Fig. S8D). The most intense signals at -190.3, -191.6 and -211.3 ppm correspond to three types of W ions in cyclic [P^V8W^VI48O184]^40−[43]. ^31P-NMR spectra recorded 96 h after preparation are identical to those recorded after 48 h for [P2W18]^6−, [P2W17]^10− and [P2W15]^12−. […] In every ^31P-NMR analysis, peaks for free phosphate were observed, indicating the release of HxPO4^x−3 from the POT clusters as a consequence of partial decomposition or rearrangement (Fig. 3). The weak signals between − 12 and − 7 ppm in the ^31P-NMR spectra (Fig. 3) with a total amount of no more than 19% of all POT signals, correspond to solution intermediates of unknown identity that have been reported previously.
^183W-NMR and ^31P-NMR were recorded with a Bruker FT-NMR spectrometer Avance Neo 500 MHz (Bruker, Rheinstetten, Germany) at 25 °C. Chemical shifts were measured relative to 1 M Na2WO4 and 85% H3PO4. ^183W-NMR samples were prepared in 2.7 mL Na-citrate buffer (50 mM, pH 6.8) with a POT concentration of 2 mM with or without 1 mM L-DOPA and measured in 10 mm tubes. The experimental time was ca. 60 h, with a standard pulse program at 20.836 MHz and a 63° flip angle with 1 s relaxation delay. Subsequently, ^31P-NMR was measured at 202.53 MHz.
^183W-NMR was performed in 50 mM Na-citrate buffer at pH 6.8 to obtain insight into the chemical speciation and hydrolytic stability of POTs. The peaks of the ^183W-NMR for [P2W18]^6− are shifted by approx. 4–5 ppm downfield relative to the assignment in the literature (Table S2). The slight shifting can be explained by different buffer conditions and ionic strength of the solution with regard to the reference data.
The ^183W-NMR speciation indicates the presence of [α2-P^V2W^VI17O61]^10− anions in [P2W18]^6−, [P2W17]^10−, [P2W15]^12− at pH 6.8 (Figs. S8, S12). For the ^183W-NMR of [P2W18]^6− at pH 4 two lines (1:2) were assigned (Fig. S7), whereas for the same compound at neutral pH a mixture of [α-P^V2W^VI18O62]^6− (1:2) and [α2-P^V2W^VI17O61]^10− (2:2:2:2:1:2:2:2:2) was observed (Fig. S8). Also, the β-isomer was detected at pH 4 and pH 6.8, respectively (Figs. S7, S8). […]

Ca^2+-ATPase = system: Ca^2+-ATPase; set-up: method as in PMID 29313547; conditions: cited from earlier work
P-type ATPase = system: P-type ATPase; set-up: method as in PMID 29313547; conditions: cited from earlier work
aquaporin-3 = system: aquaporin-3; set-up: method as in PMID 32252345; conditions: cited from earlier work
[2] = 31P-NMR, 50 mM Na-citrate pH 6.8

Substance	31P-NMR spectrum 96 h after preparation compared with 48 h ([1]; 50 mM Na-citrate pH 6.8)	Share of unidentified / unstable solution intermediates ([1]; 50 mM Na-citrate pH 6.8)	Share of monolacunary [α2-P2W17O61]10− in solution, 48 h after preparation ([1]; 50 mM Na-citrate pH 6.8)	Share of monolacunary [α2-P2W17O61]10− in solution, fresh (1 h after preparation) ([1]; 50 mM Na-citrate pH 6.8) [%]	Share of unchanged educt anion in solution, after 48 h ([1]; 50 mM Na-citrate pH 6.8) [%]	Share of unchanged educt anion in solution, fresh (1 h) ([1]; 50 mM Na-citrate pH 6.8) [%]	Share of [P2W19O69(H2O)]14− in solution after 48 h [1, 2] [%]	Share of [P8W48O184]40− in solution after 48 h [1, 2] [%]	Share of free phosphate in solution [1, 2] [%]	Influence of the substrate L-DOPA on the POT solution (reduction / speciation) ([1]; 50 mM Na-citrate pH 6.8)	Dominant POT species at pH 6.8 in Na-citrate buffer [1]	Stable in Na-citrate buffer at pH 6.8 [1]	Inhibition of Ca2+-ATPase (Ca^2+-ATPase)	Inhibition of P-type ATPase (P-type ATPase)	Inhibition of aquaporin-3 (aquaporin-3)	Share of monolacunary [α2-P2W17O61]10− in solution, 48 h after preparation ([1]; 50 mM Na-citrate pH 6.8, listed as [α/β-P^V2W^VI18O62]^6−)	Sample composition after 28 days storage ([1]; Na-citrate buffer pH 6.8, room temperature, 183W-NMR and 31P-NMR)	Share of monolacunary [α2-P2W17O61]10− in solution, fresh (1 h after preparation) ([1]; 50 mM Na-citrate pH 6.8, listed as [P^V2W^VI15O56]^12−)
(NH4)12[H2P^V2W^VI12O48]·24H2O [[P2W12]^12−]	disappeared completely	19%	3%	20	9	72	22	23	24	no change in speciation	[H2P^V2W^VI12O48]^12− + Hx[α2-P^V2W^VI17O61]^(10−x)− + [P^V2W^VI19O69(H2O)]^14− + [P^V8W^VI48O184]^40−	No	inhibited	inhibited	inhibited	–	–	–
K6[α/β-P^V2W^VI18O62]·14H2O [[P2W18]^6−]	identical	9%	69%	–	15	88	–	–	–	turned blue	Hx[α2-P^V2W^VI17O61]^(10−x)−	No	inhibited	inhibited	inhibited	~ 69%	low amounts of the α-isomer were found, but no β-isomer was detected	–
K10[α2-P^V2W^VI17O61]·20H2O [[P2W17]^10−]	identical	8%	92%	–	–	–	–	–	–	no change in speciation	Hx[α2-P^V2W^VI17O61]^(10−x)−	Yes	–	–	–	–	–	–
K12[P^V2W^VI15O56]·24H2O [[P2W15]^12−]	identical	3% and 5%	62% and 61%	62	–	–	–	–	35	no change in speciation	Hx[α2-P^V2W^VI17O61]^(10−x)−	No	–	–	–	–	–	~ 62%
